Experiments:
kappa opiate receptor = biological target: T1, kappa opiate receptor (Cavia porcellus, UniProt P41144); test: Inhibition of tritiated U69,593 binding to the kappa opiate receptor in guinea pig brain homogenates; design: Mean: unit not given beside the values; details: 3 nm tritiated U69,593, guinea pig brain membranes; for % Bound: [3H]U69,593 bound; for % Inhibition: inhibition of [3H]U69,593 binding; for Mean: mean bound radioactivity of [3H]U69,593, 2.5 hours 25° C.; for Minus NSB: mean minus non-specific binding
T1 construct: guinea pig cortices and cerebella were homogenized in 40 mL of Buffer A; from tissue; host or cells: guinea pig cortices and cerebella, crude membrane suspension
Experimental: The above-prepared library of individual compounds was screened for the ability to inhibit the binding of tritiated Compound U69,593 that is known to bind specifically to the kappa opiate receptor present in guinea pig brain homogenates following literature procedures. [Dooley et al., J. Biol. Chem., 273(30) 18848-18856 (1998)]
Briefly, guinea pig cortices and cerebella were homogenized in 40 mL of Buffer A [50 mM Tris-HCl, pH 7.4] at 4° C. Homogenates were centrifuged [Beckman® J2-HC, 35, 300×g] for 10 minutes. The pellets were resuspended in fresh buffer and incubated at 37° C. for 40 minutes. Following incubation, the suspensions were centrifuged as before, the resulting pellets resuspended in 100 volumes of Tris buffer, and the suspensions combined. Membrane suspensions were prepared and used on the same day. Protein content of the crude homogenates was determined by the method of Bradford, Anal. Biochem., 72:248-252 (1976).
Each assay tube contained 0.5 mL of membrane suspension, 3 nm of tritiated Compound U69,593 [(5a,7a,8b)-(−)-N-methyl-N-(7-(1-pyrrolidinyl)-1-oxaspiro(4,5)dec-8-yl)-benzeneacetamide; Lahti et al., European J. Pharmacol., 109:281-284(199-85)] in a total volume of 0.65 mL. Assay tubes were incubated for 2.5 hours a 25° C. The assay was then filtered through GF-B filters on a Tomec™ harvester (Orange, Conn.). The filters were subsequently washed with 6 mL of 50 mM Tris-HC1, pH 7.4 at 4° C. Bound radioactivity was counted on a Wallace™ Beta-plate Liquid Scintillation Counter (Piscataway, N.J.). Unlabeled U50, 488 [(trans-(dl)-3,4-dichloro-N-methyl-N-[2-(1-pyrrolidinyl)cyclohexyl]-benzeneacetamide) methane sulfonate hydrate; Lahti et al., Life Sci., 31:2257-xx(1982) and Von Voightlander et al., J. Pharmacol. Exp. Ther., 224:7 (1983)] was used as a competitive inhibitor to generate a standard curve and determine nonspecific binding. The results of these assays are shown in the table, below, wherein the “R” groups are as discussed for Example 1.

mu opiate receptor = biological target: T2, mu opiate receptor (Rattus norvegicus, UniProt P33535); test: Inhibition of [3H]DAMGO binding to the mu opiate receptor in rat brain homogenates; design: Mean: unit not given beside the values; details: 0.08 mg of compound per milliliter, 7 nM 3H-labeled DAMGO, rat brain membranes; for % Bound: [3H]DAMGO bound; for Mean: mean bound radioactivity of [3H]DAMGO; for Minus NSB*: mean minus non-specific binding; for % Inhibition: percent inhibition of DAMGO binding
T2 construct: from tissue; host or cells: rat brain membranes/homogenate
Experimental: The previously prepared [3,5,7]-1H-imidazo[1,5-a]-imidazol-2(3H)-one library of individual compounds was screened for the ability to inhibit the binding of [^3H] [D-Ala^2,MePhe^4,Gly^5-ol]enkephalin (DAMGO) that is known to bind specifically to the mu opiate receptor present in rat brain homogenates following literature procedures. [Dooley et al., Science, 266:2019(1994); U.S. Pat. No. 5,763,193.]
Preparation of rat brain membranes and the receptor binding assay were carried out as described in Dooley et al., Life Sci., 52:1509(1993). Each tube in the screening assay contained 0.08 mg of compound mixture per milliliter, 0.5 mL of membrane suspension (0.1 mg of protein), 7 nM ^3H-labeled DAMGO [specific activity 36 Ci/mmol, obtained from the National Institute on Drug Abuse (NIDA) repository through Chiron Mimotopes PeptideSystems (San Diego, Calif.) and […] of peptide mixture in 50 mM Tris-HCl buffer (pH 7.4). The final volume was 0.65 mL. The results of these screenings are shown in the table, below, wherein the “R” groups are as discussed for Example 1. The results are reported as percent inhibition of DAMGO binding.

T1 sequence (P41144 whole entry): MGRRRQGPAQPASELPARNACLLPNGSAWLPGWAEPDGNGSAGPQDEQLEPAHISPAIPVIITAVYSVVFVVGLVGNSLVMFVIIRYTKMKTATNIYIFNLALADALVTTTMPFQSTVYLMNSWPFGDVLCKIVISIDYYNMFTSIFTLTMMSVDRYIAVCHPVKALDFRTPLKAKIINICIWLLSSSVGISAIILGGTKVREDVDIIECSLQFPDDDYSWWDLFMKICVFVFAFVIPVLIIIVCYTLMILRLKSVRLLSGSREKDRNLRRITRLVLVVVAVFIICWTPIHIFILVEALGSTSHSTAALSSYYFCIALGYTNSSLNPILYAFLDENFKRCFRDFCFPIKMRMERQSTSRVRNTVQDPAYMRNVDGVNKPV
T2 sequence (P33535 whole entry): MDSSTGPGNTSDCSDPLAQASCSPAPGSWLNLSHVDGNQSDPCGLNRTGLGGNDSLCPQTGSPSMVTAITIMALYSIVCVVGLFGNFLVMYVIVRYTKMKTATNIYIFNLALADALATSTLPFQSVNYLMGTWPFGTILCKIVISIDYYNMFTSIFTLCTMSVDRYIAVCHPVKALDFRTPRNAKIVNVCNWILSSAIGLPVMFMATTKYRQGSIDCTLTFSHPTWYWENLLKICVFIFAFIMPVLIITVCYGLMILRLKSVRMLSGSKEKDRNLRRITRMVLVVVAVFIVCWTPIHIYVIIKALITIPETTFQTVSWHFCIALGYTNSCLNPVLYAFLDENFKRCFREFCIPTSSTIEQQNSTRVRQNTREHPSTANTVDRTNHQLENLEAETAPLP

SMILES | % Bound (kappa opiate receptor) | % Inhibition (kappa opiate receptor) | Mean (kappa opiate receptor) | Minus NSB (kappa opiate receptor) | % Bound (mu opiate receptor) | Mean (mu opiate receptor) | Minus NSB* (mu opiate receptor) | % Inhibition (mu opiate receptor)
CC(C)c1nc(CC(C)c2ccccc2)n2c1NC(=O)C2C(C)C (mixture of isomers) [Pool 69] | 67.157% | 32.843% | 1602.75 | 695.75 | 62% | 900.1 | 592.10 | 38%
Cc1nc(C(C)C)c2n1C(CC1CCCCC1)C(=O)N2 (centres unmarked) [Pool 29] | 88.277% | 11.723% | 1821.55 | 914.55 | 61% | 891.65 | 583.65 | 39%
CC(C)c1nc(C2CCCC2)n2c1NC(=O)C2C(C)C (centres unmarked) [Pool 145] | 61.501% | 38.499% | 1544.15 | 637.15 | 71% | 986.9 | 678.90 | 29%
Cc1nc(CCCNC(=N)N)c2n1C(C(C)C)C(=O)N2 (centres unmarked) [Pool 42] | 48.200% | 51.800% | 1406.35 | 499.35 | 29% | 581.65 | 273.65 | 71%
CCCCC1C(=O)Nc2c(C(C)C)nc(C)n21 (centres unmarked) [Pool 11] | 80.034% | 19.966% | 1736.15 | 829.15 | 47% | 756.05 | 448.05 | 53%
CCC(C)c1nc(C)n2c1NC(=O)C2C(C)C (centres unmarked) [Pool 54] | 100.410% | −0.410% | 1947.25 | 1040.25 | 53% | 815.2 | 507.20 | 47%
CCCc1nc(C)n2c1NC(=O)C2C(C)C (centres unmarked) [Pool 45] | 85.275% | 14.725% | 1790.45 | 883.45 | 62% | 902.55 | 594.55 | 38%
CC(C)c1nc(CCCc2ccccc2)n2c1NC(=O)C2C(C)C (racemic) [Pool 113] | 61.597% | 38.403% | 1545.15 | 638.15 | 43% | 716.3 | 408.30 | 57%
Cc1nc(C(C)C)c2n1C(C(C)C)C(=O)N2 (centres unmarked) [Pool 52] | 74.744% | 25.256% | 1681.35 | 774.35 | 68% | 959.85 | 651.85 | 32%
Cc1cccc(Cc2nc(C(C)C)c3n2C(C(C)C)C(=O)N3)c1 (racemic) [Pool 70] | 107.389% | −7.389% | 2019.55 | 1112.55 | 68% | 954.15 | 646.15 | 32%
CCC(C)C1C(=O)Nc2c(C(C)C)nc(C)n21 (centres unmarked) [Pool 5] | 75.043% | 24.957% | 1684.45 | 777.45 | 78% | 1052.8 | 744.80 | 22%
Cc1nc(Cc2ccccc2)c2n1C(C(C)C)C(=O)N2 (centres unmarked) [Pool 47] | 104.469% | −4.469% | 1989.3 | 1082.30 | 62% | 897.8 | 589.80 | 38%
CC(C)c1nc(CCC2CCCCC2)n2c1NC(=O)C2C(C)C (centres unmarked) [Pool 148] | 89.971% | 10.029% | 1839.1 | 932.10 | 61% | 890.8 | 582.80 | 39%
Cc1nc(C(C)C)c2n1C(Cc1ccccc1)C(=O)N2 (centres unmarked) [Pool 30] | 74.884% | 25.116% | 1682.8 | 775.80 | 65% | 929.9 | 621.90 | 35%
CCCCc1nc(C)n2c1NC(=O)C2C(C)C (centres unmarked) [Pool 44] | 110.299% | −10.299% | 2049.7 | 1142.70 | 67% | 947.55 | 639.55 | 33%
Cc1nc(CC2CCCCC2)c2n1C(C(C)C)C(=O)N2 (centres unmarked) [Pool 46] | 121.815% | −21.815% | 2169 | 1262.00 | 60% | 881.4 | 573.40 | 40%
CC(C)c1nc(CC(C)(C)C)n2c1NC(=O)C2C(C)C (centres unmarked) [Pool 136] | 80.589% | 19.411% | 1741.9 | 834.90 | 72% | 991 | 683.00 | 28%
Cc1nc(C(C)C)c2n1C(C(C)C)C(=O)N2 (centres unmarked) [Pool 19] | 84.580% | 15.420% | 1783.25 | 876.25 | 75% | 1027.75 | 719.75 | 25%
CCCCC(CC)c1nc(C(C)C)c2n1C(C(C)C)C(=O)N2 (mixture of isomers) [Pool 128] | 57.563% | 42.437% | 1503.35 | 596.35 | 60% | 881.35 | 573.35 | 40%
CCCC1C(=O)Nc2c(C(C)C)nc(C)n21 (centres unmarked) [Pool 28] | 67.601% | 32.399% | 1607.35 | 700.35 | 66% | 932.9 | 624.90 | 34%
CC(C)c1nc(CC23CC4CC(CC(C4)C2)C3)n2c1NC(=O)C2C(C)C (centres unmarked) [Pool 156] | 78.803% | 21.197% | 1723.4 | 816.40 | 65% | 925.85 | 617.85 | 35%
CCCc1nc(C)n2c1NC(=O)C2C(C)C (racemic) [Pool 61] | 50.845% | 49.155% | 1433.75 | 526.75 | 39% | 677.65 | 369.65 | 61%
